Data as given in PubChem BioAssay (NCI).
“And” between values parts separate entries of the source, which are not always exact repeats. Equal entries are not always repeated.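 Assay format: 96-well plates, 48-hour exposure. GI50 marks 50% less growth. TGI denotes the concentration required for complete inhibition of growth.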

Assays:
Experiment in all cases: NCI tumour cell line growth inhibition, 48 h
BT-549 breast = test system: BT-549 breast
DU-145 prostate = test system: DU-145 prostate
HS 578T breast = test system: HS 578T breast
MCF7 breast = test system: MCF7 breast
MDA-MB-231 breast = test system: MDA-MB-231 breast
MDA-MB-435 = test system: MDA-MB-435
PC-3 prostate = test system: PC-3 prostate

| Compound | GI50 (BT-549 breast) | TGI (BT-549 breast) | GI50 (DU-145 prostate) | TGI (DU-145 prostate) | GI50 (HS 578T breast) | TGI (HS 578T breast) | GI50 (MCF7 breast) | TGI (MCF7 breast) | GI50 (MDA-MB-231 breast) | TGI (MDA-MB-231 breast) | GI50 (MDA-MB-435) | TGI (MDA-MB-435) | GI50 (PC-3 prostate) | TGI (PC-3 prostate) |
| --- | --- | --- | --- | --- | --- | --- | --- | --- | --- | --- | --- | --- | --- | --- |
| CSc1nc2c(c(=O)[nH]1)N=C1c3ccccc3C(=O)C1C(c1ccccc1)N2 (stereo not drawn) | 5.35 µM | > 100 µM | 13.4 µM | > 100 µM | 2.1 µM | 7.18 µM | 2.4 µM | > 100 µM | 4.09 µM | > 100 µM | 0.494 µM | 6.91 µM | 3.64 µM | > 100 µM |
| Cc1cc(I)cc(CN(C)CCCCN2CCCCC2)c1O | 8.05 µM | 21.5 µM | 26.8 µM | > 100 µM | 8.9 µM | 23.5 µM | 13.6 µM | 30 µM | 16.3 µM | 43 µM | 3.5 µM | 12.9 µM | 15 µM | 32 µM |
| CC/C=C\CCC/C=C1/C(=O)C=C[C@@H]1C/C=C\CCCC(=O)OC | – | – | 8.67 µM | 21.1 µM | 10.6 µM | 53.3 µM | 2.69 µM | 13.9 µM | 4.23 µM | 14.9 µM | 2.49 µM | 6.39 µM | 3.14 µM | 8.11 µM |
| Cc1ccc(NC2=C(Cl)C(=O)N(Cc3ccccc3)C2=O)cc1O | – | – | 60.1 µM | > 100 µM | 25.9 µM | 83.4 µM | 32.2 µM | > 100 µM | 21 µM | 61.5 µM | 29 µM | > 100 µM | 32.5 µM | > 100 µM |
| O=C(Nc1ccc(Cl)c(Cl)c1)Nc1ccc(Cl)c(Cl)c1 | 1.72 µM and 4.01 µM | 5.96 µM and 31.6 µM | 4.03 µM and 4.34 µM | 14.4 µM and 16.2 µM | 3.29 µM and 2.08 µM | 19.3 µM and 6.88 µM | 2.61 µM and 2.78 µM | 12 µM and 11.6 µM | 1.63 µM and 1.73 µM | 3.79 µM and 3.7 µM | 3.06 µM and 2.8 µM | 11.4 µM and 8.8 µM | 2.82 µM and 1.78 µM | 12.3 µM and 9.82 µM |
| CCCCCN(CCCCC)CC(O)c1cc(C)c2ccc3cc(C(C)C)ccc3c2c1 (stereo not drawn) | 1.85 µM | 3.51 µM | 1.89 µM | 3.37 µM | 1.93 µM | 4.65 µM | 1.75 µM | 3.48 µM | 1.79 µM | 3.77 µM | 1.72 µM | 3.21 µM | 1.59 µM | 3.08 µM |
| CC1=C(C(=O)Nc2ccc(Cl)c(Cl)c2)C(c2cccc(Oc3ccccc3)c2)NC(=S)N1 (stereo not drawn) | 5.94 µM | 12.5 µM | 6.88 µM | 13.3 µM | 5.03 µM | 13.5 µM | – | – | 8.69 µM | 16.6 µM | 7.55 µM | 14.2 µM | 9.71 µM | 29.1 µM |
| CO[C@H](C(=O)[C@@H](O)[C@@H](C)O)[C@@H]1Cc2cc3cc(O[C@H]4C[C@@H](O[C@H]5C[C@@H](O)[C@H](O)C(C)O5)[C@H](O)C(C)O4)c(C)c(O)c3c(O)c2C(=O)[C@H]1O[C@H]1C[C@@H](O[C@H]2C[C@@H](O[C@H]3C[C@](C)(O)C(=O)C(C)O3)[C@@H](O)C(C)O2)[C@H](O)C(C)O1 (stereo partly drawn) | 0.0356 µM | 0.157 µM | 0.127 µM | > 33.2 µM | 0.0723 µM | 8.25 µM | 0.0208 µM | > 33.2 µM | 0.145 µM | 9.97 µM | 0.0646 µM | 0.252 µM | 0.151 µM | 32.2 µM |
| COc1cc(CNc2cnc3cc(N)cc(N)c3n2)cc(OC)c1 | 20.2 µM | 51.4 µM | 41.4 µM | > 100 µM | 17 µM | 52 µM | 24.5 µM | > 100 µM | 5.58 µM | 20.4 µM | 21.1 µM | 39.5 µM | 15.1 µM | 35.2 µM |
| Cc1ccc(C(=O)/C(=C/c2ccc([N+](=O)[O-])cc2)SCc2ccc(Cl)cc2)cc1 | 1.93 µM | 4.09 µM | 5.33 µM | > 100 µM | 2.14 µM | 6.96 µM | 0.375 µM | 3.08 µM | 1.96 µM | 5.8 µM | 1.86 µM | 4.3 µM | 1.12 µM | 3.49 µM |
| Cc1coc2c1CC1(C)C(CCC(O)C1C)C2 (stereo not drawn) | – | > 100 µM | – | > 100 µM | – | > 100 µM | – | > 100 µM | – | > 100 µM | – | > 100 µM | – | > 100 µM |
| CCOC(=O)[C@]1(OC(C)=O)C[C@H](OC(C)=O)[C@@H](C(F)COP(=O)(OCc2ccccc2)OCc2ccccc2)O1 (stereo partly drawn) | – | > 100 µM | – | > 100 µM | – | > 100 µM | 20.8 µM and > 100 µM | 45.6 µM and > 100 µM | – | > 100 µM | 18.3 µM and 79.2 µM | 38.2 µM and > 100 µM | – | 88 µM and > 100 µM |
| OCc1ccc(N2CCC2c2ccc(F)cc2)cc1Cl (stereo not drawn) | 21.2 µM | 49.9 µM | 35.8 µM | > 100 µM | 26.7 µM | > 86.8 µM | 0.69 µM | 24.5 µM | 22.6 µM | > 68.3 µM | 26.6 µM | > 75.7 µM | 21 µM | 67.1 µM |
| NC(=O)c1sc(-n2cnc3ccccc32)cc1OCc1ccccc1Br | 9.68 µM | > 25 µM | 2.02 µM | 7.19 µM | 9.11 µM | > 25 µM | 0.86 µM | > 25 µM | 4.96 µM | > 25 µM | 0.795 µM | 5.47 µM | 10.3 µM | > 25 µM |
| O=C(O)CSc1ccc([N+](=O)[O-])cc1[N+](=O)[O-] | – | > 100 µM | – | > 100 µM | – | > 100 µM | – | > 100 µM | – | > 100 µM | – | > 100 µM | – | > 100 µM |
| C#Cc1ccc(-n2c(/C=C/c3ccc(C(F)(F)F)cc3)nc3ncccc3c2=O)cc1 | 1.71 µM | 3.37 µM | 3.76 µM | 12.2 µM | 3.46 µM | > 100 µM | 2.49 µM | 10.2 µM | 2.05 µM | 5.47 µM | 2.27 µM | 6.48 µM | 1.96 µM | 6.31 µM |
| O=C(Nc1ccccc1OC(F)(F)F)Nc1n[nH]c2ccccc12 | 76.4 µM | > 100 µM | 51.7 µM | > 100 µM | 19.4 µM | > 100 µM | 1.75 µM | > 100 µM | 17.9 µM | > 100 µM | 51.5 µM | > 100 µM | 31.4 µM | > 100 µM |
